Data: patent US9422338B2 (EpoDose LLC, priority 2011, dated 2016)
One block for each molecule: values may come before it. Bridges are numbered along the chain shown (N, C = ends). Roman numbers before positions name the chains, in order. [ ]: non-standard residue; d: D form. ξ: configuration not given here. 1Nal = N[C@@H](Cc1cccc2ccccc12)C(=O)O; ξK = NCCCCC(N)C(=O)O; Ava = NCCCCC(=O)O

Target: T1, EPOR (erythropoietin receptor), human recombinant, NSO cells (Homo sapiens, UniProt P19235)
T1 construct: host or cells: NSO cells
T1 sequence (P19235 25-250 limits assumed): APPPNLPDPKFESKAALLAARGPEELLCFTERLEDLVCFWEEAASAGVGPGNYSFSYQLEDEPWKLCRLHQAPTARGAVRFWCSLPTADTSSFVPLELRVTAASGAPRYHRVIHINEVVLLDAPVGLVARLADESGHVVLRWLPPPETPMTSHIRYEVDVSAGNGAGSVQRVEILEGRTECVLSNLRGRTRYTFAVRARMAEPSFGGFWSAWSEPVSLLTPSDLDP
Experiment: EPOR radioligand binding assay ([125I] Erythropoietin competition)
Details: for Ki (AC-0005-002)/Ki: Ki relative to that of AC-0005-002; for Ki/Ki(EPO): Ki relative to that of EPO
Procedure: IC50 values were determined by a non-linear, least squares regression analysis using MATHIQ™ (computer software for integrating mathematical functions into new or existing software). […] Where presented, the Hill coefficient (nH), defining the slope of the competitive binding curve, was calculated using MATHIQ™.

[1] = Example 2, mimetics varied in loop, mid and C-end

Ki (Example 1, mimetics varied in N-end, loop and mid sequences): 11.2 nM
IC50 (Example 3): 23.5 nM
Ki (Example 3, Cheng-Prusoff): 11.1 nM
IC50 (Example 4, fifth table): 24 nM
Molecule: CSCC[C@@H]1NC(=O)[C@H](Cc2c[nH]cn2)NC(=O)C(NC(=O)[C@H](CC(C)C)NC(=O)[C@H](Cc2ccc(O)cc2)NC(=O)[C@H](CC(N)=O)NC(C)=O)CCOCC(C(=O)N[C@@H](CCCCNC(=N)N)C(=O)N2CCC[C@H]2C(=O)NCCCCC(=O)NCCCCC(NC(=O)[C@@H]2CCCN2C(=O)[C@H](CCCCNC(=N)N)NC(=O)C2COCCC(NC(=O)[C@H](CC(C)C)NC(=O)[C@H](Cc3ccc(O)cc3)NC(=O)[C@H](CC(N)=O)NC(C)=O)C(=O)N[C@@H](Cc3c[nH]cn3)C(=O)N[C@@H](CCSC)C(=O)N3CCC[C@H]3C(=O)N[C@@H](Cc3ccc4ccccc4c3)C(=O)N[C@@H](C(C)C)C(=O)N2)C(N)=O)NC(=O)[C@H](C(C)C)NC(=O)[C@H](Cc2ccc3ccccc3c2)NC(=O)[C@@H]2CCCN2C1=O (stereo partly drawn) [AC-0005-056]

Molecule: CSCC[C@H]1COC2CCCC2C(=O)N[C@@H](Cc2c[nH]c3ccccc23)C(=O)N[C@@H](C(C)C)C(=O)NC(C(=O)N[C@@H](CCCCNC(=N)N)C(=O)N2CCC[C@H]2C(=O)NCCCCC(=O)NCCCCC(NC(=O)[C@@H]2CCCN2C(=O)[C@H](CCCCNC(=N)N)NC(=O)C2COCCC(NC(=O)[C@H](CC(C)C)NC(=O)[C@H](Cc3ccc(O)cc3)NC(=O)[C@H](CC(N)=O)NC(C)=O)C(=O)N[C@@H](CCCNC(=N)N)C(=O)N[C@@H](CCSC)COC3CCCC3C(=O)N[C@@H](Cc3c[nH]c4ccccc34)C(=O)N[C@@H](C(C)C)C(=O)N2)C(N)=O)COCCC(NC(=O)[C@H](CC(C)C)NC(=O)[C@H](Cc2ccc(O)cc2)NC(=O)[C@H](CC(N)=O)NC(C)=O)C(=O)N[C@@H](CCCNC(=N)N)C(=O)N1 (stereo partly drawn) [AC-0005-057]
NH (Hill coefficient) (Example 3, slope of competitive binding curve): 1.84
Ki (AC-0005-002)/Ki (Example 4, fifth table): 379
Ki/Ki(EPO) (Example 4, fifth table): 128

Ki (AC-0005-002)/Ki (Example 4, sixth table): 195
Ki/Ki(EPO) (Example 4, sixth table): 330
Molecule: CCN[C@@H](CC(N)=O)C(=O)N[C@@H](Cc1ccc(O)cc1)C(=O)N[C@@H](CC(C)C)C(=O)NC1CCOCC(C(=O)N[C@@H](CCCCNC(=N)N)C(=O)N2CCC[C@H]2C(=O)NC(CCCC(=O)NCCCCC(NC(=O)[C@@H]2CCCN2C(=O)[C@H](CCCCNC(=N)N)NC(=O)C2COCCC(NC(=O)[C@H](CC(C)C)NC(=O)[C@H](Cc3ccc(O)cc3)NC(=O)[C@H](CC(N)=O)NC(C)=O)C(=O)N[C@@H](CCCNC(=N)N)C(=O)N[C@@H](CCSC)C(=O)N3CCC[C@H]3C(=O)N[C@@H](Cc3ccc4ccccc4c3)C(=O)N[C@@H](C(C)C)C(=O)N2)C(=O)N[C@@H](CCCNC(=N)N)C(N)=O)C(=O)N[C@@H](CCCNC(=N)N)C(N)=O)NC(=O)[C@H](C(C)C)NC(=O)[C@H](Cc2ccc3ccccc3c2)NC(=O)[C@@H]2CCCN2C(=O)[C@H](CCSC)NC(=O)[C@H](CCCNC(=N)N)NC1=O (stereo partly drawn) [AC-0005-060]

Ki [1]: 27.7 nM
IC50 (Example 4, sixth table): 58.5 nM
Molecule: CSCC[C@@H]1NC(=O)[C@H](CCCNC(=N)N)NC(=O)C(NC(=O)[C@H](CC(C)C)NC(=O)[C@H](Cc2ccc(O)cc2)NC(=O)[C@H](CC(N)=O)NC(C)=O)CCOCC(C(=O)N[C@@H](CCCCN)C(=O)N2CCC[C@H]2C(=O)NC(CCCCNC(=O)CCCC(NC(=O)[C@@H]2CCCN2C(=O)[C@H](CCCCN)NC(=O)C2COCCC(NC(=O)[C@H](CC(C)C)NC(=O)[C@H](Cc3ccc(O)cc3)NC(=O)[C@H](CC(N)=O)NC(C)=O)C(=O)N[C@@H](CCCNC(=N)N)C(=O)N[C@@H](CCSC)C(=O)N3CCC[C@H]3C(=O)N[C@@H](Cc3ccc4ccccc4c3)C(=O)N[C@@H](C(C)C)C(=O)N2)C(=O)N[C@@H](CCCNC(=N)N)C(N)=O)C(=O)N[C@@H](CCCNC(=N)N)C(N)=O)NC(=O)[C@H](C(C)C)NC(=O)[C@H](Cc2ccc3ccccc3c2)NC(=O)[C@@H]2CCCN2C1=O (stereo partly drawn) [AC-0005-061]

Ki [1]: 1.2 nM
IC50 (Example 4, sixth table): 2.4 nM
Molecule: CSCC[C@@H]1NC(=O)[C@H](CCCNC(=N)N)NC(=O)C(NC(=O)[C@H](CC(C)C)NC(=O)[C@H](Cc2ccc(O)cc2)NC(=O)[C@H](CC(N)=O)NC(C)=O)CCOCC(C(=O)N[C@@H](CCCCN)C(=O)N2CCC[C@H]2C(=O)NC(CCCCNC(=O)CCCC(NC(=O)[C@@H]2CCCN2C(=O)[C@H](CCCCN)NC(=O)C2COCCC(NC(=O)[C@H](CC(C)C)NC(=O)[C@H](Cc3ccc(O)cc3)NC(=O)[C@H](CC(N)=O)NC(C)=O)C(=O)N[C@@H](CCCNC(=N)N)C(=O)N[C@@H](CCSC)C(=O)N3CCC[C@H]3C(=O)N[C@@H](Cc3ccc4ccccc4c3)C(=O)N[C@@H](C(C)C)C(=O)N2)C(=O)NCCC(=O)N[C@@H](CCCNC(=N)N)C(N)=O)C(=O)NCCC(=O)N[C@@H](CCCNC(=N)N)C(N)=O)NC(=O)[C@H](C(C)C)NC(=O)[C@H](Cc2ccc3ccccc3c2)NC(=O)[C@@H]2CCCN2C1=O (stereo partly drawn) [AC-0005-062]

Ki [1]: 1 nM
IC50 (Example 4, sixth table): 2.2 nM
Molecule: CSCC[C@@H]1NC(=O)[C@H](CCCNC(=N)N)NC(=O)C(NC(=O)[C@H](CC(C)C)NC(=O)[C@H](Cc2ccc(O)cc2)NC(=O)[C@H](CC(N)=O)NC(C)=O)CCOCC(C(=O)N[C@@H](CCCCNC(=N)N)C(=O)N2CCC[C@H]2C(=O)NC(CCCCNC(=O)CCCC(NC(=O)[C@@H]2CCCN2C(=O)[C@H](CCCCNC(=N)N)NC(=O)C2COCCC(NC(=O)[C@H](CC(C)C)NC(=O)[C@H](Cc3ccc(O)cc3)NC(=O)[C@H](CC(N)=O)NC(C)=O)C(=O)N[C@@H](CCCNC(=N)N)C(=O)N[C@@H](CCSC)C(=O)N3CCC[C@H]3C(=O)N[C@@H](Cc3ccc4ccccc4c3)C(=O)N[C@@H](C(C)C)C(=O)N2)C(=O)NCCC(=O)N[C@@H](CCCNC(=N)N)C(N)=O)C(=O)NCCC(=O)N[C@@H](CCCNC(=N)N)C(N)=O)NC(=O)[C@H](C(C)C)NC(=O)[C@H](Cc2ccc3ccccc3c2)NC(=O)[C@@H]2CCCN2C1=O (stereo partly drawn) [AC-0005-063]

Ki [1]: 0.6 nM
IC50 (Example 4, sixth table): 1.3 nM
Molecule: CSCC[C@@H]1NC(=O)[C@H](CCCNC(=N)N)NC(=O)C(NC(=O)[C@H](CC(C)C)NC(=O)[C@H](Cc2ccc(O)cc2)NC(=O)[C@H](CC(N)=O)NC(C)=O)CCOCC(C(=O)N[C@@H](CCCCNC(=N)N)C(=O)N2CCC[C@H]2C(=O)NCCCOCCC(OCCCNC(=O)[C@@H]2CCCN2C(=O)[C@H](CCCCNC(=N)N)NC(=O)C2COCCC(NC(=O)[C@H](CC(C)C)NC(=O)[C@H](Cc3ccc(O)cc3)NC(=O)[C@H](CC(N)=O)NC(C)=O)C(=O)N[C@@H](CCCNC(=N)N)C(=O)N[C@@H](CCSC)C(=O)N3CCC[C@H]3C(=O)N[C@@H](Cc3ccc4ccccc4c3)C(=O)N[C@@H](C(C)C)C(=O)N2)C(N)=O)NC(=O)[C@H](C(C)C)NC(=O)[C@H](Cc2ccc3ccccc3c2)NC(=O)[C@@H]2CCCN2C1=O (stereo partly drawn) [AC-0005-064]

Ki (AC-0005-002)/Ki (Example 4, first table): 1
Molecule: I: Ac-GGLYACHMGPIT[1Nal]VCQPQGG[ξK]-NH2 / II: Ac-GGNYLCHMGPIT[1Nal]VCQPQGG[Ava] (disulfide I:6-I:15, II:6-II:15; amide I:21-II:C) [AC-0005-002]
